# Values quoted from earlier work in US10927398B2, “Compositions for CYP450 phenotyping using saliva samples” (Concordia University, Inc., priority 2015, dated 2021).
# Where two headings read alike, the source gives them in different places.
# Legend:
# [1] = cited from earlier work
# [2] = system: plasma protein; details: cited from earlier work
# [3] = cited from earlier work; remark: listed apart in the source
# [4] = Table of Exemplary Drugs, CYP3A4
# [5] = Table of Exemplary Drugs, CYP2D6
# [6] = Table of Exemplary Drugs, CYP2C9
# [7] = Table of Exemplary Drugs, CYP2C19
# [8] = Table of Exemplary Drugs, CYP1A2
structure (smiles),measurement,setting,value
"CC(C)Nc1cccnc1N1CCN(C(=O)c2cc3cc(NS(C)(=O)=O)ccc3[nH]2)CC1 [Delavirdine (Rescriptor), Delavirdine]",ORAL BIOAVAILABILITY,[1]; [4],85%
same,PLASMA PROTEIN BINDING,[2]; [4],98%
same,HALF-LIFE,[3]; [4],5.8 h
O=C(NCC1CCCCN1)c1cc(OCC(F)(F)F)ccc1OCC(F)(F)F (stereo not shown) [Flecainide],ORAL BIOAVAILABILITY,[1]; [5],70-95%
same,PLASMA PROTEIN BINDING,[2]; [5],40%
same,HALF-LIFE,[3]; [5],20 h
"COc1ccccc1OCC(O)CN1CCN(CC(=O)Nc2c(C)cccc2C)CC1 (stereo not shown) [Ranulazine (Ranexa), Ranulazine]",ORAL BIOAVAILABILITY,[1]; [4],55%
same,PLASMA PROTEIN BINDING,[2]; [4],62%
same,HALF-LIFE,[3]; [4],7 to 8.9 h
"OC(c1cc(C(F)(F)F)nc2c(C(F)(F)F)cccc12)C1CCCCN1 (stereo not shown) [Mefloquine (Lariam), Mefloquine]",ORAL BIOAVAILABILITY,[1]; [4],85%
same,PLASMA PROTEIN BINDING,[2]; [4],98%
same,HALF-LIFE,[3]; [4],3 weeks
O=C1NC(=O)C(c2ccccc2)(c2ccccc2)N1 [Phenytoin],ORAL BIOAVAILABILITY,[1]; [6],20-90%
same,ORAL BIOAVAILABILITY,[1]; [7],20-90%
same,PLASMA PROTEIN BINDING,[2]; [6],88-93% ^
same,PLASMA PROTEIN BINDING,[2]; [7],88-93% ^
same,HALF-LIFE,[3]; [6],14 to 22 h
same,HALF-LIFE,[3]; [7],14 to 22 h
"CCN(CC)CCN1C(=O)CN=C(c2ccccc2F)c2cc(Cl)ccc21 [Flurazepam (Dalmane), Flurazepam]",ORAL BIOAVAILABILITY,[1]; [4],83%
same,PLASMA PROTEIN BINDING,[2]; [4],97.2%^
same,HALF-LIFE,[3]; [4],2.3 h
"COC(=O)C1=C(C)NC(C)=C(C(=O)OC(C)C)C1c1cccc2nonc12 (stereo not shown) [Isradipine (DynaCirc), Isradipine]",ORAL BIOAVAILABILITY,"[1]; cell marked CR, Table of Exemplary Drugs, CYP3A4",CR: 15-24%
same,ORAL BIOAVAILABILITY,"[1]; cell marked IR, Table of Exemplary Drugs, CYP3A4",IR 90-95%;
same,PLASMA PROTEIN BINDING,[2]; [4],95%
same,HALF-LIFE,[3]; [4],8 h
COc1ccc2c3c1O[C@H]1[C@@H](O)C=C[C@H]4[C@@H](C2)N(C)CC[C@@]341 [Codeine],ORAL BIOAVAILABILITY,"[1]; in vivo, po",90%
same,PLASMA PROTEIN BINDING,[2]; [5],7-25%^
same,HALF-LIFE,[3]; in vivo,2.5 to 3 h
CN(C)CCCC1(c2ccc(F)cc2)OCc2cc(C#N)ccc21 (stereo not shown) [Citalopram],ORAL BIOAVAILABILITY,[1]; [7],80%
same,PLASMA PROTEIN BINDING,[2]; [7],80%
same,HALF-LIFE,[3]; [7],35 h
"CC(C)(C)c1ccc(C(=O)CCCN2CCC(OC(c3ccccc3)c3ccccc3)CC2)cc1 [Ebastine (Kestine), Ebastine]",ORAL BIOAVAILABILITY,[1]; [4],“High”
same,PLASMA PROTEIN BINDING,[2]; [4],98%
same,HALF-LIFE,[3]; [4],24.8 h
COc1ccc2c3c1O[C@H]1C(=O)CC[C@H]4[C@@H](C2)N(C)CC[C@]314 [Hydrocodone],ORAL BIOAVAILABILITY,"[1]; in vivo, po",25%
same,PLASMA PROTEIN BINDING,[2]; [5],19-45% ^
same,HALF-LIFE,[3]; in vivo,7 to 9 h
CN(C)CCCN1c2ccccc2Sc2ccc(Cl)cc21 [Chlorpromazine],ORAL BIOAVAILABILITY,[1]; [5],32%
same,PLASMA PROTEIN BINDING,[2]; [5],90-99% ^
same,HALF-LIFE,[3]; [5],6 h
"CCOC(=O)C1=C(C)NC(C)=C(C(=O)OC)C1c1cccc([N+](=O)[O-])c1 (stereo not shown) [Nitrendipine (Baypress), Nitrendipine]",ORAL BIOAVAILABILITY,[1]; [4],23%
same,PLASMA PROTEIN BINDING,[2]; [4],97-99% ^
same,HALF-LIFE,[3]; [4],2 to 24 h
"CC(C)CC(N(C)C)C1(c2ccc(Cl)cc2)CCC1 (stereo not shown) [Sibutramine (Meridia), Sibutramine]",ORAL BIOAVAILABILITY,[1]; [4],77%
same,PLASMA PROTEIN BINDING,[2]; [4],97%
same,HALF-LIFE,[3]; [4],1.1 h
"O=C(O[C@H]1CN2CCC1CC2)N1CCc2ccccc2[C@@H]1c1ccccc1 [Solifenacin (Vesicare), Solifenacin]",ORAL BIOAVAILABILITY,"[1]; in vivo, po",90%
same,PLASMA PROTEIN BINDING,[2]; plasma,98%
same,HALF-LIFE,[3]; in vivo,45 to 68 h
COc1ccc2cccc(CCNC(C)=O)c2c1 [Agomelatine],ORAL BIOAVAILABILITY,[1]; [8],<5%
same,PLASMA PROTEIN BINDING,[2]; [8],95%
same,HALF-LIFE,[3]; [8],1 to 2 h
CN1CCN2c3ccccc3Cc3ccccc3C2C1 (stereo not shown) [Mianserin],ORAL BIOAVAILABILITY,[1]; [5],20-30%
same,PLASMA PROTEIN BINDING,[2]; [5],90%
same,HALF-LIFE,[3]; [5],1.4 h
Cc1cccc(Nc2ccncc2S(=O)(=O)NC(=O)NC(C)C)c1 [Torasemide],ORAL BIOAVAILABILITY,[1]; [6],80%
same,PLASMA PROTEIN BINDING,[2]; [6],>99%
same,HALF-LIFE,[3]; [6],2.2 to 3.8 h
CCC1(c2ccccc2)C(=O)NC(=O)NC1=O [Phenobarbital],ORAL BIOAVAILABILITY,"[1]; in vivo, po",80-100%
same,PLASMA PROTEIN BINDING,[2]; plasma,20-60% ^
same,HALF-LIFE,[3]; in vivo,36 to 120 h
"CC(C)C[C@H]1C(=O)N2CCC[C@H]2[C@]2(O)O[C@](NC(=O)[C@@H]3C=C4c5cccc6[nH]c(Br)c(c56)C[C@H]4N(C)C3)(C(C)C)C(=O)N12 [Bromocriptine (Parlodel), Bromocriptine]",ORAL BIOAVAILABILITY,[1]; [4],65-95%
same,PLASMA PROTEIN BINDING,[2]; [4],90-96% ^
same,HALF-LIFE,[3]; [4],6 to 20 h
"CC[C@H]1OC(=O)[C@H](C)[C@@H](O[C@H]2C[C@@](C)(OC)[C@@H](O)[C@H](C)O2)[C@H](C)[C@@H](O[C@@H]2O[C@H](C)C[C@H](N(C)C)[C@H]2O)[C@](C)(OC)C[C@@H](C)C(=O)[C@H](C)[C@@H](O)[C@]1(C)O [Clarithromycin (Biaxin), Clarithromycin]",ORAL BIOAVAILABILITY,[1]; [4],55%
same,PLASMA PROTEIN BINDING,[2]; [4],Low
same,HALF-LIFE,[3]; [4],4 h
"CCCc1nc(C)c2c(=O)[nH]c(-c3cc(S(=O)(=O)N4CCN(CC)CC4)ccc3OCC)nn12 [Vardenafil (Levitra), Vardenafil]",ORAL BIOAVAILABILITY,[1]; [4],15-44%
same,PLASMA PROTEIN BINDING,[2]; [4],95%
same,HALF-LIFE,[3]; [4],4 to 5 h
"CCCC1O[C@@H]2C[C@H]3[C@@H]4CCC5=CC(=O)C=C[C@]5(C)[C@H]4[C@@H](O)C[C@]3(C)[C@]2(C(=O)CO)O1 (stereo partly shown) [Budesonide (Entocort), Budesonide]",ORAL BIOAVAILABILITY,[1]; [4],9-21%
same,PLASMA PROTEIN BINDING,[2]; [4],85-90% ^
same,HALF-LIFE,[3]; [4],2 to 3.6 h
CNC1(c2ccccc2Cl)CCCCC1=O (stereo not shown) [Ketamine],ORAL BIOAVAILABILITY,[1]; in vivo,"IM: 90-93%, PO: 16%"
same,PLASMA PROTEIN BINDING,[2]; plasma,47%
same,HALF-LIFE,[3]; in vivo,2 to 3 h
"CCC[C@@]1(CCc2ccccc2)CC(O)=C([C@H](CC)c2cccc(NS(=O)(=O)c3ccc(C(F)(F)F)cn3)c2)C(=O)O1 [Tipranavir (Aptivus), Tipranavir]",ORAL BIOAVAILABILITY,[1]; [4],30?%
same,PLASMA PROTEIN BINDING,[2]; [4],99.9%^
same,HALF-LIFE,[3]; [4],5.5 to 6 h
CC(=O)[C@H]1CC[C@H]2[C@@H]3CCC4=CC(=O)CC[C@]4(C)[C@H]3CC[C@]12C [Progesterone],ORAL BIOAVAILABILITY,[1]; [7],10-15%
same,PLASMA PROTEIN BINDING,[2]; [7],95-99% ^
same,HALF-LIFE,"[3]; cell marked PV, Table of Exemplary Drugs, CYP2C19",PV: 5-20 min
COCCc1ccc(OCC(O)CNC(C)C)cc1 (stereo not shown) [Metoprolol],ORAL BIOAVAILABILITY,[1]; [5],77%
same,PLASMA PROTEIN BINDING,[2]; [5],12%
same,HALF-LIFE,[3]; [5],3 to 7 h
"COc1cc2nc(N(C)CCCNC(=O)C3CCCO3)nc(N)c2cc1OC (stereo not shown) [Alfazosin (Uroxatral), Alfazosin]",ORAL BIOAVAILABILITY,"[1]; in vivo, po",49%
same,PLASMA PROTEIN BINDING,[2]; plasma,86%
same,HALF-LIFE,[3]; in vivo,10 h
"Cc1ccnc2c1NC(=O)c1cccnc1N2C1CC1 [Nevirapine (Viramune), Nevirapine]",ORAL BIOAVAILABILITY,[1]; [4],80-94%
same,PLASMA PROTEIN BINDING,[2]; [4],60%
same,HALF-LIFE,[3]; [4],25 to 45 h
CC[C@H]1OC(=O)[C@H](C)[C@@H](O[C@H]2C[C@@](C)(OC)[C@@H](O)[C@H](C)O2)[C@H](C)[C@@H](O[C@@H]2O[C@H](C)C[C@H](N(C)C)[C@H]2O)[C@](C)(O)C[C@@H](C)C(=O)[C@H](C)[C@@H](O)[C@]1(C)O [Erythromycin],ORAL BIOAVAILABILITY,[1]; [4],30-65%
same,PLASMA PROTEIN BINDING,[2]; [4],90%
same,HALF-LIFE,[3]; [4],1 to 1.5 h
Cc1cccc(C)c1OCC(C)N (stereo not shown) [Mexiletine],ORAL BIOAVAILABILITY,[1]; [8],90%
same,ORAL BIOAVAILABILITY,[1]; [5],80-90%
same,PLASMA PROTEIN BINDING,[2]; [8],50-60% ^
same,PLASMA PROTEIN BINDING,[2]; [5],50-70% ^
same,HALF-LIFE,[3]; [8],10 to 12 h
same,HALF-LIFE,[3]; [5],6 to 17 h
